Data on 2 compounds can be found in PubChem BioAssay (NCI).

Some test systems named below: HCC-2998 colon; SN12C renal; HCT-15 colon; CCRF-CEM leukemia; NCI-H522 lung; SF-268 CNS; HCT-116 colon; UO-31 renal; RPMI-8226 leukemia; MOLT-4 leukemia; A549 NSCLC; SK-MEL-5 melanoma; SNB-19 CNS; COLO 205 colon; KM12 colon; SW-620 colon; EKVX NSCLC; KM20L2 colon; DMS 114 small cell lung; DMS 273 small cell lung.
What all share (test): NCI anticancer screen, dose series, 48 h

The structures appear in SMILES notation.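 Dose response: 5 concentrations. Exposure: 48 h. Format: 96-well plates. Endpoint: linear interpolation; highest concentration if not reached. TGI is the concentration that stops growth completely.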

On to `NC(CCOCCP(=O)(O)O)C(=O)O` (stereo unspecified), for which the TGI with HCC-2998 colon, with SN12C renal, in the assay with HCT-15 colon, with CCRF-CEM leukemia, in the assay with NCI-H522 lung and with SF-268 CNS was more than 100 µM each time. Also, the TGI in the assay on HCT-116 colon, in the assay with UO-31 renal, in the assay with RPMI-8226 leukemia, with MOLT-4 leukemia, in the assay on A549 NSCLC and in the assay with SK-MEL-5 melanoma was more than 100 µM each time. In addition, the TGI in the assay on SNB-19 CNS, in the assay with COLO 205 colon, in the assay with KM12 colon, in the assay on SW-620 colon and with EKVX NSCLC was more than 100 µM throughout.

For `COc1c2c(c3ccccc3c1O)C1C=CC2C1` (stereo unspecified), the TGI in the assay on KM20L2 colon came out at 45.7 µM; in the assay on HCC-2998 colon, 29.7 µM; in the assay on SN12C renal, 28.5 µM; in the assay with HCT-15 colon, 22 µM; in the assay with CCRF-CEM leukemia it was 97.6 µM; in the assay on NCI-H522 lung it was 29.3 µM. Also, the TGI is 33.7 µM with SF-268 CNS; 14.6 µM with HCT-116 colon; 17.6 µM in the assay on UO-31 renal; more than 100 µM with RPMI-8226 leukemia; 19.6 µM with DMS 114 small cell lung; 47.2 µM with MOLT-4 leukemia. In addition, the TGI in the assay on A549 NSCLC turned out to be 36.6 µM; with SK-MEL-5 melanoma it was 19.1 µM; in the assay on DMS 273 small cell lung, 30.3 µM; in the assay with COLO 205 colon, 30.1 µM; in the assay with KM12 colon, 31.4 µM; with SW-620 colon, 34.3 µM. This compound also registered a TGI in the assay on EKVX NSCLC of 33 µM.
